According to publication PMC12675575, “A BRET biosensor for measuring uncompetitive engagement of PRMT5 complexes in cells” (Nature Communications, 2025):
Where “and” joins values, the source holds several entries; their conditions need not be identical. Equal values may be shown once. Read-outs that look alike come from different tables or passages of the source. Values belong to the compound of their own block, whether it stands above or below them.

Key:
[1] = target: PRMT5; set-up: method as in ref 5,6 (a number printed in a supplementary file, which may have a reference list of its own: not looked up in the article's list); conditions: single-cycle kinetic analysis; read-out: SPR (pM), Kd; cited from earlier work
[2] = tested on: SDMA levels in A427; set-up: method as in ref 5,6 (a number printed in a supplementary file, which may have a reference list of its own: not looked up in the article's list); conditions: read-out: In-Cell Western (nM), IC50; cited from earlier work
[3] = target: NanoLuc-PRMT5 co-expressed with WDR77 (Homo sapiens, UniProt O14744); test: Live-cell NanoBRET target engagement with BRET probe CBH-002 in HEK293 cells expressing NanoLuc-PRMT5 and unlabeled WDR77; type: cell-based; set-up: host or cells: HEK293; conditions: for EC50: HEK293, competitive displacement of CBH-002, 2 h, n=3
NanoLuc-PRMT5 co-expressed with WDR77, sequence (O14744 whole entry, the tested form may be a part): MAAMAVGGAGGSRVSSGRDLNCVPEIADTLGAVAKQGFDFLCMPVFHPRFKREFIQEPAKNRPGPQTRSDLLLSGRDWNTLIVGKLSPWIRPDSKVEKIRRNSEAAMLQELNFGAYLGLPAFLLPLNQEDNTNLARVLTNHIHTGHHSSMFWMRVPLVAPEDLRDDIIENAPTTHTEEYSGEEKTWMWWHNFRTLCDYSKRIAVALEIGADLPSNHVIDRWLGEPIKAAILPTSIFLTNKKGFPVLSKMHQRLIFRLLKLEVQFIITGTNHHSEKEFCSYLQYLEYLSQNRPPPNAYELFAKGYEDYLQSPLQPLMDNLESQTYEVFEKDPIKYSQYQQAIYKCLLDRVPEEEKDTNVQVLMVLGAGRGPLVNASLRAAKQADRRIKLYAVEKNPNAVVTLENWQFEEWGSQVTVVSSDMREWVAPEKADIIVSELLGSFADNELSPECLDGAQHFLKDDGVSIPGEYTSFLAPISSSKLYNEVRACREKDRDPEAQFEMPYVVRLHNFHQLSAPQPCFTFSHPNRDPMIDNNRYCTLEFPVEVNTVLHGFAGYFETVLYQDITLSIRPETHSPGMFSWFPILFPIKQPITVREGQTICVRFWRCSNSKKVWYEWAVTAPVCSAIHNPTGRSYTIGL
NanoLuc-PRMT5 co-expressed with WDR77, sequence (Q9BQA1 whole entry partner, the tested form may be a part): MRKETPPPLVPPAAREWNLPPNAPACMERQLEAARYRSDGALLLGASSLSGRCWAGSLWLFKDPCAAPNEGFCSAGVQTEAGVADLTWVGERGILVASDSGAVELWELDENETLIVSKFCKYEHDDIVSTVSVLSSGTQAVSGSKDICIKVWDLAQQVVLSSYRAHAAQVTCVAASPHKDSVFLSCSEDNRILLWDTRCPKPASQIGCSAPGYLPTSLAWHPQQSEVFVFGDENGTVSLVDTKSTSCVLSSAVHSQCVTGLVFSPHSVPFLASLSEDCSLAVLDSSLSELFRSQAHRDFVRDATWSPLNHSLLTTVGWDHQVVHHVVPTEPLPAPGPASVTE
Method: HEK293 cells (ATCC) were cultured in DMEM (Thermo Fisher) + 10% (v/v) FBS (Seredigm), and HCT116 cells (Horizon Discovery, #PAR-034 and #R02-033) were cultured in McCoy’s 5A (Thermo Fisher) + 10% FBS, with incubation in a humidified, 37 °C/5% CO2 incubator. Cells were split 1–3 days prior to performing experiments and used at roughly 80% confluency. […] Cells were transfected according to the manufacturer’s protocol using FuGENE HD (Promega). NanoLuc fusion DNA was diluted into Transfection Carrier DNA (Promega) in Opti-MEM at a ratio of 1:9 (mass/mass), and FuGENE HD was added at a ratio of 1:3 (μg DNA:μL lipid). […] Formed complexes were combined with cells resuspended to a density of 2 × 10^5 cells/mL in Opti-MEM + 1% FBS at a ratio of 1:20 (vol:vol). […] Cells were seeded at a density of 2 × 10^5 cells/mL in Opti-MEM + 1% FBS in 100 μL (96-well). The BRET probe CBH-002 was prepared first as a 100× stock in 100% DMSO (Sigma) and then diluted to a 20× stock in NanoBRET Tracer Dilution buffer (Promega). Test compounds were prepared as 1000× stocks in 100% DMSO and diluted to 10× stocks in Opti-MEM to prepare working stocks. […] NanoBRET Complete 3x Substrate was prepared by combining Nano-Glo Substrate and Extracellular NanoLuc Inhibitor in Opti-MEM, according to the manufacturer’s protocol (Promega).
BRET ratio values were calculated by dividing the acceptor by the donor signal, and raw BRET was converted to milli-BRET (mBRET) units (mBu) by multiplying by 1000.
EC50 values were obtained by fitting the BRET probe and compound affinity curves to a sigmoidal four-parameter fit model in Graphpad Prism:1 Y=Ymin+Ymax−Ymin/1+10^LogEC50−Xh where h is the Hill Slope.
When normalized BRET was used, mBRET values were normalized using2 NormalizedBRET%=(Y−BRETmin)/BRETmax−BRETmin where y = mBRET in the presence of test compound and BRET probe, BRETmin = mBRET at the highest concentration (saturating) of test compound and BRET probe, and BRETmax = mBRET in the presence of vehicle (DMSO) and BRET probe.
Normalized concentration-response curves showing full competition were fit using a 2-parameter model:3 Y=100/1+10^LogEC50−Xh
In situations where only partial competition was observed, the normalized concentration-response curves were fit using Eq. 1 and where Ymin was constrained to >0.

[4] = target: NLuc-PRMT5 co-expressed with WDR77 (Homo sapiens, UniProt O14744); test: Compound EC50 titrations against MTA, NanoBRET in HEK293 (NLuc-PRMT5 + WDR77), with global Gaddum/Schild or Morrison fits; conditions: for Schild slope: Global Gaddum/Schild EC50 shift fit, MTA titration; for Right-shift in binding/potency on addition of MTA: HEK293, 300 µM exogenous MTA; for EC50 fold change (EC50 at 300 μM MTA versus vehicle): negative = enhanced potency under high MTA; for Hill slope (Global/Schild fit): constant across [MTA], constrained to 1 for PF06939999 and GSK3326595
NLuc-PRMT5 co-expressed with WDR77, sequence (O14744 whole entry): as the sequence (O14744 whole entry, the tested form may be a part) above
NLuc-PRMT5 co-expressed with WDR77, sequence (Q9BQA1 whole entry partner): as the sequence (Q9BQA1 whole entry partner, the tested form may be a part) above
Method: MTA (Sigma) was prepared at 100× in 100% DMSO and diluted to 10× in Opti-MEM. Inhibitors were run as 11 pt, 3-fold dilution curves and MTA as a seven point, 3-fold dilution curve starting at 100 μM. Cells were incubated for 2 h at 37 °C and 5% CO2 prior to BRET measurements. Data was normalized using Eq. (2) where BRETMIN = saturating compound + maximum [MTA], and BRETMAX = BRET signal under vehicle conditions. Curves were fit using Eq. (3), and EC50 values were plotted against MTA concentration to determine the linear range of MTA detection.

[5] = tested on: PRMT5; conditions: 3H-SAM to peptide substrate; read-out: Biochemical (nM), IC50; cited from earlier work
[6] = target: PRMT5:MEP50 complex; set-up: method as in ref 4 (a number printed in a supplementary file, which may have a reference list of its own: not looked up in the article's list); conditions: read-out: SPR (pM), Kd; cited from earlier work
[7] = tested on: SmBB' dimethylation in MCF7 cells; set-up: method as in ref 4 (a number printed in a supplementary file, which may have a reference list of its own: not looked up in the article's list); conditions: read-out: In-Cell Western (nM), EC50; cited from earlier work
[8] = tested on: SDMA in MTAP WT cells; set-up: method as in ref 9 (a number printed in a supplementary file, which may have a reference list of its own: not looked up in the article's list); conditions: read-out: In-Cell Western (nM), SDMA EC50; cited from earlier work
[9] = tested on: PRMT5–MEP50; conditions: cited from earlier work; for IC50: read-out: Biochemical (nM), IC50
[10] = target: PRMT5/MEP50; set-up: method as in ref 7,8 (a number printed in a supplementary file, which may have a reference list of its own: not looked up in the article's list); conditions: 20 μM SAM preincubation; read-out: SPR; cited from earlier work
[11] = tested on: SDMA in MTAP del cells; set-up: method as in ref 7,8 (a number printed in a supplementary file, which may have a reference list of its own: not looked up in the article's list); conditions: read-out: In-Cell Western (nM), SDMA IC50; cited from earlier work
[12] = tested on: SDMA in MTAP WT cells; set-up: method as in ref 7,8 (a number printed in a supplementary file, which may have a reference list of its own: not looked up in the article's list); conditions: read-out: In-Cell Western (nM), SDMA IC50; cited from earlier work
[13] = tested on: MTAP del cell lines; set-up: method as in ref 7,8 (a number printed in a supplementary file, which may have a reference list of its own: not looked up in the article's list); conditions: 10 day viability, read-out: Proliferation (nM), IC50; cited from earlier work
[14] = tested on: MTAP WT cell lines; set-up: method as in ref 7,8 (a number printed in a supplementary file, which may have a reference list of its own: not looked up in the article's list); conditions: 10 day viability, read-out: Proliferation (nM), IC50; cited from earlier work

remaining activity at […] ([3]; HEK293, log([compound]), uM -0.48, vehicle = 100, read-out: Normalized BRET, Bio rep 1-3): 0.95%
remaining activity at 0.1122 µM ([3]; HEK293, log([compound]), uM -0.95, vehicle = 100, read-out: Normalized BRET, Bio rep 1-3): 2.4%
remaining activity at 0.03715 µM ([3]; HEK293, log([compound]), uM -1.43, vehicle = 100, read-out: Normalized BRET, Bio rep 1-3): 5.9%
remaining activity at […] ([3]; HEK293, log([compound]), uM -1.91, vehicle = 100, read-out: Normalized BRET, Bio rep 1-3): 11.6%
remaining activity at 0.004074 µM ([3]; HEK293, log([compound]), uM -2.39, vehicle = 100, read-out: Normalized BRET, Bio rep 1-3): 22.9%
remaining activity at 0.00138 µM ([3]; HEK293, log([compound]), uM -2.86, vehicle = 100, read-out: Normalized BRET, Bio rep 1-3): 51.1%
remaining activity at 0.0004571 µM ([3]; HEK293, log([compound]), uM -3.34, vehicle = 100, read-out: Normalized BRET, Bio rep 1-3): 72.7%
remaining activity at 0.0001514 µM ([3]; HEK293, log([compound]), uM -3.82, vehicle = 100, read-out: Normalized BRET, Bio rep 1-3): 89%
remaining activity at 51.29 pM ([3]; HEK293, log([compound]), uM -4.29, vehicle = 100, read-out: Normalized BRET, Bio rep 1-3): 98.4%
remaining activity at 16.98 pM ([3]; HEK293, log([compound]), uM -4.77, vehicle = 100, read-out: Normalized BRET, Bio rep 1-3): 102%
EC50 ([3]; read-out: NanoBRET EC50 (95% CI)): 1.7 nM
Schild slope ([4]; HEK293): 1.15 (0.88 - 1.51)
A2 (concentration of MTA needed to shift the dose response curve by a factor of 2) ([4]; Global/Schild fit, HEK293): 172 (137 – 211) M
Right-shift in binding/potency on addition of MTA [4]: 3 fold
EC50 fold change (EC50 at 300 μM MTA versus vehicle) ([4]; HEK293): 3 and 2.8
Hill slope ([4]; [MTA] 0 μM, HEK293): 0.97
Hill slope ([4]; [MTA] 11.11 μM, HEK293): 0.99
Hill slope ([4]; [MTA] 100 μM, HEK293): 0.79
Hill slope ([4]; [MTA] 300 μM, HEK293): 0.76
Hill slope (Global/Schild fit) [4]: 1
Compound: Nc1ncnc2c1ccn2C1OC(C(O)c2ccccc2)C(O)C1O (centres unmarked) [PF-06939999]
Kd [1]: 5.8 pM
IC50 [2]: 1.1 nM

remaining activity at […] ([3]; HEK293, log([compound]), uM 0.0458, vehicle = 100, read-out: Normalized BRET, Bio rep 1-3): 34%
remaining activity at […] ([3]; HEK293, log([compound]), uM 0.52, vehicle = 100, read-out: Normalized BRET, Bio rep 1-3): 24.1%
remaining activity at 0.3715 µM ([3]; HEK293, log([compound]), uM -0.43, vehicle = 100, read-out: Normalized BRET, Bio rep 1-3): 53.7%
remaining activity at […] ([3]; HEK293, log([compound]), uM -0.91, vehicle = 100, read-out: Normalized BRET, Bio rep 1-3): 66.1%
remaining activity at 0.04074 µM ([3]; HEK293, log([compound]), uM -1.39, vehicle = 100, read-out: Normalized BRET, Bio rep 1-3): 81.4%
remaining activity at 0.0138 µM ([3]; HEK293, log([compound]), uM -1.86, vehicle = 100, read-out: Normalized BRET, Bio rep 1-3): 91.4%
remaining activity at 0.004571 µM ([3]; HEK293, log([compound]), uM -2.34, vehicle = 100, read-out: Normalized BRET, Bio rep 1-3): 97.7%
remaining activity at 0.001514 µM ([3]; HEK293, log([compound]), uM -2.82, vehicle = 100, read-out: Normalized BRET, Bio rep 1-3): 102%
remaining activity at 0.0005129 µM ([3]; HEK293, log([compound]), uM -3.29, vehicle = 100, read-out: Normalized BRET, Bio rep 1-3): 107%
remaining activity at 0.0001698 µM ([3]; HEK293, log([compound]), uM -3.77, vehicle = 100, read-out: Normalized BRET, Bio rep 1-3): 102%
EC50 ([3]; NanoBRET EC50 (95% CI, nM)): 467 nM
EC50 ([4]; EC50, [MTA] 0 μM, HEK293, 30 nM CBH-002): 348 nM
EC50 ([4]; EC50, nM (MTA = 0), Global/Schild fit, HEK293): 365 nM
Schild slope ([4]; HEK293): 1.1 (0.93 - 1.31)
A2 (concentration of MTA needed to shift the dose response curve by a factor of 2) ([4]; Global/Schild fit, HEK293): 61 (46-79) M
Right-shift in binding/potency on addition of MTA [4]: 6 fold
EC50 fold change (EC50 at 300 μM MTA versus vehicle) ([4]; HEK293): 6 and 6.1
Hill slope ([4]; [MTA] 0 μM, HEK293): 0.62
Hill slope ([4]; [MTA] 11.11 μM, HEK293): 0.55
Hill slope ([4]; [MTA] 100 μM, HEK293): 0.62
Hill slope ([4]; [MTA] 300 μM, HEK293): 0.64
Hill slope (Global/Schild fit) [4]: 0.55 (0.51 - 0.59)
Compound: Nc1ncnc2c1ccn2[C@@H]1O[C@H]([C@H](O)c2ccccc2)[C@@H](O)[C@H]1O [LLY-283]
IC50 [5]: 22 nM
Kd [6]: 6000 pM
EC50 [7]: 25 nM

Compound: Cc1cc(NC(=O)C(=O)N2CC(C)CCC2c2ccc3scnc3c2)cnc1N (centres unmarked) [TNG908]
EC50 [8]: 135 nM

Compound: Cn1ncc(-c2ccc3c(=O)[nH]nc(CN)c3c2)c1-c1c(F)c(Cl)cc(OC2CC2)c1C#N [MRTX1719]
IC50 ([9]; MTA): 3.6 nM
IC50 ([9]; SAM): 20.4 nM
Enhancement of biochemical IC50 in the presence of MTA [9]: 5 fold
Kd [10]: 0.0094 nM
IC50 [11]: 8 nM
IC50 [12]: 653 nM
IC50 [13]: 12 nM
IC50 [14]: 890 nM
